Calls of active or inactive are those of the source. No cut-off for these calls is given here.
The molecules below were run on RAW264.7 (assay: Antiinflammatory activity in mouse RAW264.7 cells assessed as inhibition of LPS-induced nitric oxide production after 18 hrs by griess reaction analysis). Conditions: RAW264.7, 18 h.
Assay type: functional, cell-based
`O=c1c(O[C@@H]2O[C@H](CO)[C@H](O)[C@H](O)[C@H]2O)c(-c2ccc(O)c(O)c2)oc2cc(O)cc(O)c12` [HYPEROSIDE] showed an IC50 of 48.8 µM. `COC(=O)[C@H]1CC(=O)c2oc(=O)c3cc(O)c(O)c(O)c3c21` showed an IC50 of 23.8 µM. In the case of `O=C(OC[C@H]1O[C@@H](OC(=O)c2cc(O)c(O)c(O)c2)[C@H](O)[C@@H](OC(=O)c2cc(O)c(O)c(O)c2)[C@@H]1OC(=O)c1cc(O)c(O)c(O)c1)c1cc(O)c(O)c(O)c1`, the IC50 is reported as > 50 µM.

These molecules were tested on RAW264.7 (assay: Antiinflammatory activity in mouse RAW264.7 cells assessed as inhibition of LPS-induced TNF-alpha secretion at 10 uM after 18 hrs by sandwich ELISA). Conditions: not given.
Assay type: functional
With `O=c1c(O[C@@H]2O[C@H](CO)[C@H](O)[C@H](O)[C@H]2O)c(-c2ccc(O)c(O)c2)oc2cc(O)cc(O)c12` [HYPEROSIDE] the inhibition was “Active”. With `COC(=O)[C@H]1CC(=O)c2oc(=O)c3cc(O)c(O)c(O)c3c21` the inhibition was “Active”. `O=C(OC[C@H]1O[C@@H](OC(=O)c2cc(O)c(O)c(O)c2)[C@H](O)[C@@H](OC(=O)c2cc(O)c(O)c(O)c2)[C@@H]1OC(=O)c1cc(O)c(O)c(O)c1)c1cc(O)c(O)c(O)c1` was tested, and the inhibition was “Active”.

The molecules below were run against T1, Bifunctional epoxide hydrolase 2 (Homo sapiens) (UniProt P34913) (assay: Inhibition of sEH (unknown origin) assessed as substrate PHOME hydrolysis at 25 uM after 1 hr by fluorescence method). Conditions: not given.
T1 sequence (whole entry): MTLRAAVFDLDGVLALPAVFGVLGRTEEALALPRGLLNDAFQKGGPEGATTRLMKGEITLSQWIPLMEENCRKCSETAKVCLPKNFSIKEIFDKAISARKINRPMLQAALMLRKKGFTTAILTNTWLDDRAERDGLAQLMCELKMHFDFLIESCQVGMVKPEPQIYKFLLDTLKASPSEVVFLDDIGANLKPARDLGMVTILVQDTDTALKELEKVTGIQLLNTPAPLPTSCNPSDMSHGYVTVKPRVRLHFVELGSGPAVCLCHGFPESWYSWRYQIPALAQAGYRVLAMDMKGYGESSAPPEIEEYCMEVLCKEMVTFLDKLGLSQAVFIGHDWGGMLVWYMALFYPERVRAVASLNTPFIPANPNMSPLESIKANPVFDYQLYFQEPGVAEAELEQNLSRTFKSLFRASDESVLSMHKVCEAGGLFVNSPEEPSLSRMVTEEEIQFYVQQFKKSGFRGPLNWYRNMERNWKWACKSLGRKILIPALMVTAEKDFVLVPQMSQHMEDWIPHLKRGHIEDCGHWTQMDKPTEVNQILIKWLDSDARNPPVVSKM
In the case of `O=c1c(O[C@@H]2O[C@H](CO)[C@H](O)[C@H](O)[C@H]2O)c(-c2ccc(O)c(O)c2)oc2cc(O)cc(O)c12` [HYPEROSIDE], the inhibition is reported as > 40%. `COC(=O)[C@H]1CC(=O)c2oc(=O)c3cc(O)c(O)c(O)c3c21` was tested, and the inhibition was > 40%. For `O=C(OC[C@H]1O[C@@H](OC(=O)c2cc(O)c(O)c(O)c2)[C@H](O)[C@@H](OC(=O)c2cc(O)c(O)c(O)c2)[C@@H]1OC(=O)c1cc(O)c(O)c(O)c1)c1cc(O)c(O)c(O)c1`, the inhibition was > 40%.

The molecules below were run against T2, Bifunctional epoxide hydrolase 2 (Homo sapiens, UniProt P34913) (assay: Inhibition of sEH (unknown origin) assessed as substrate PHOME hydrolysis after 1 hr by fluorescence method). Conditions: not given.
T2 sequence (P34913 whole entry): T1 sequence (whole entry)
For `O=c1c(O[C@@H]2O[C@H](CO)[C@H](O)[C@H](O)[C@H]2O)c(-c2ccc(O)c(O)c2)oc2cc(O)cc(O)c12` [HYPEROSIDE], the IC50 was 21.8 µM. With `COC(=O)[C@H]1CC(=O)c2oc(=O)c3cc(O)c(O)c(O)c3c21` the IC50 was > 50 µM. In the case of `O=C(OC[C@H]1O[C@@H](OC(=O)c2cc(O)c(O)c(O)c2)[C@H](O)[C@@H](OC(=O)c2cc(O)c(O)c(O)c2)[C@@H]1OC(=O)c1cc(O)c(O)c(O)c1)c1cc(O)c(O)c(O)c1`, the IC50 is reported as 36.1 µM.

The molecules below were run on RAW264.7 (assay: Antiinflammatory activity in mouse RAW264.7 cells assessed as inhibition of LPS-induced nitric oxide production at 10 uM after 18 hrs by griess reaction analysis). Conditions: not given.
Assay type: functional
With `O=c1c(O[C@@H]2O[C@H](CO)[C@H](O)[C@H](O)[C@H]2O)c(-c2ccc(O)c(O)c2)oc2cc(O)cc(O)c12` [HYPEROSIDE] the inhibition was “inactive”. With `COC(=O)[C@H]1CC(=O)c2oc(=O)c3cc(O)c(O)c(O)c3c21` the inhibition was “Active”. `O=C(OC[C@H]1O[C@@H](OC(=O)c2cc(O)c(O)c(O)c2)[C@H](O)[C@@H](OC(=O)c2cc(O)c(O)c(O)c2)[C@@H]1OC(=O)c1cc(O)c(O)c(O)c1)c1cc(O)c(O)c(O)c1` was tested, and the inhibition was “inactive”.

The molecules below were run on RAW264.7 (assay: Antiinflammatory activity in mouse RAW264.7 cells assessed as inhibition of LPS-induced TNF-alpha secretion at 0.4 uM after 18 hrs by sandwich ELISA). Conditions: not given.
Assay type: functional, cell-based
For `O=c1c(O[C@@H]2O[C@H](CO)[C@H](O)[C@H](O)[C@H]2O)c(-c2ccc(O)c(O)c2)oc2cc(O)cc(O)c12` [HYPEROSIDE], the inhibition was “inactive”. For `COC(=O)[C@H]1CC(=O)c2oc(=O)c3cc(O)c(O)c(O)c3c21`, the inhibition was “inactive”. With `O=C(OC[C@H]1O[C@@H](OC(=O)c2cc(O)c(O)c(O)c2)[C@H](O)[C@@H](OC(=O)c2cc(O)c(O)c(O)c2)[C@@H]1OC(=O)c1cc(O)c(O)c(O)c1)c1cc(O)c(O)c(O)c1` the inhibition was “inactive”.

These molecules were tested on RAW264.7 (assay: Antiinflammatory activity in mouse RAW264.7 cells assessed as inhibition of LPS-induced nitric oxide production at 0.4 uM after 18 hrs by griess reaction analysis). Conditions: not given.
Assay type: functional, cell-based
`O=c1c(O[C@@H]2O[C@H](CO)[C@H](O)[C@H](O)[C@H]2O)c(-c2ccc(O)c(O)c2)oc2cc(O)cc(O)c12` [HYPEROSIDE] was tested, and the inhibition was “inactive”. With `COC(=O)[C@H]1CC(=O)c2oc(=O)c3cc(O)c(O)c(O)c3c21` the inhibition was “inactive”. In the case of `O=C(OC[C@H]1O[C@@H](OC(=O)c2cc(O)c(O)c(O)c2)[C@H](O)[C@@H](OC(=O)c2cc(O)c(O)c(O)c2)[C@@H]1OC(=O)c1cc(O)c(O)c(O)c1)c1cc(O)c(O)c(O)c1`, the inhibition is reported as “inactive”.

What follows are molecules tested on RAW264.7 (assay: Antiinflammatory activity in mouse RAW264.7 cells assessed as inhibition of LPS-induced TNF-alpha secretion after 18 hrs by sandwich ELISA). Conditions: RAW264.7, 18 h.
Assay type: functional, cell-based
`O=c1c(O[C@@H]2O[C@H](CO)[C@H](O)[C@H](O)[C@H]2O)c(-c2ccc(O)c(O)c2)oc2cc(O)cc(O)c12` [HYPEROSIDE] was tested, and the IC50 was > 50 µM. In the case of `COC(=O)[C@H]1CC(=O)c2oc(=O)c3cc(O)c(O)c(O)c3c21`, the IC50 is reported as 21.2 µM. `O=C(OC[C@H]1O[C@@H](OC(=O)c2cc(O)c(O)c(O)c2)[C@H](O)[C@@H](OC(=O)c2cc(O)c(O)c(O)c2)[C@@H]1OC(=O)c1cc(O)c(O)c(O)c1)c1cc(O)c(O)c(O)c1` was tested, and the IC50 was 22.6 µM.

Each molecule was assayed on RAW264.7 (assay: Cytotoxicity against mouse RAW264.7 cells assessed as cell viability at 50 uM after 18 hrs by MTT assay in presence of LPS). Conditions: raw264.7, 18 h.
Assay type: cell-based
For `O=c1c(O[C@@H]2O[C@H](CO)[C@H](O)[C@H](O)[C@H]2O)c(-c2ccc(O)c(O)c2)oc2cc(O)cc(O)c12` [HYPEROSIDE], the Activity was “Non-toxic”. With `COC(=O)[C@H]1CC(=O)c2oc(=O)c3cc(O)c(O)c(O)c3c21` the Activity was “Non-toxic”. In the case of `O=C(OC[C@H]1O[C@@H](OC(=O)c2cc(O)c(O)c(O)c2)[C@H](O)[C@@H](OC(=O)c2cc(O)c(O)c(O)c2)[C@@H]1OC(=O)c1cc(O)c(O)c(O)c1)c1cc(O)c(O)c(O)c1`, the Activity is reported as “Non-toxic”.

— ChEMBL document CHEMBL3232869, “Anti-inflammatory components of Euphorbia humifusa Willd” (Bioorg Med Chem Lett, 2014)
